{
  "source": "patent US11174267B2",
  "about": "“Spiroindolinones and therapeutic uses thereof” (The Regents of the University of California, priority 2015, dated 2021)",
  "tested_on": "heterozygous deletion C. albicans strains",
  "test": "Whole genome Haploinsufficiency Profiling (HIP)",
  "assay_type": "cell-based, Candida albicans",
  "conditions": "0.05 μM Compound 1 + 0.125 μg/ml FLC vs. 0.125 μg/ml FLC",
  "protocol": "Whole genome Haploinsufficiency Profiling (HIP) analysis. Haplo-Insufficiency Profiling (HIP) with the Double BarCoded (DBC) library was used. A pool of 5,470 heterozygous deletion C. albicans strains constructed by Merck, to identify potential targets for the azole-synergizer, Compound 1. The collection, obtained from Merck Sharp & Dohme Corp in 96-well plates, were transferred to YPD (2% peptone, 1% yeast extract, and 2% glucose) agar plates and grown at 30° C. for 72 h. All colonies were collected from plates and pooled in SC medium, add glycerol to 15% and adjust to the final concentration of 50 OD600 nm per milliliter, store in aliquot at −80° C.\nStock pools were diluted into SC medium to an OD600 nm of 0.0875 and drug treatments were performed in a 1 ml SC medium in 24-well plates. The appropriate drug treatment concentrations were determined before screening. […]\nBioinformatics analysis of HIP. Sequencing reads were first separated by their experimental tags into treatments and then filtered by UPTAG or DNTAG. Among the reads mapped with experimental tags, more than 95% can be filtered exclusively by UPTAG or DNTAGs. Filtered reads were mapped to an artificial genome containing each individual gene in the library identified by UPTAG or DNTAG using bowtie 1.0.\nRead counts per gene were calculated using a weighted arithmetic mean of mapped UPTAG and DNTAG read counts. […]",
  "data": [
    {"smiles": "Cc1c(Cl)ccc2c1NC(=O)[C@]21N[C@H](Cc2ccccc2)[C@@H]2C(=O)N(c3ccc(F)cc3)C(=O)[C@@H]21", "note": "(racemic) [Compound 1, (±)-(3R,3′R,3a′R,6a'S)-3′-benzyl-6-chloro-5′-(4-fluorophenyl)-7-methyl-2′,3′,3a′,6a′-tetrahydro-4′H-spiro[indoline-3,1′-pyrrolo[3,4-c]pyrrole]-2,4′,6′(5′H)-trione]", "values": [
      {"measurement": "HIP profiling, mutants with significant change in abundance", "value": "cdr1/CDR1 emerged as the only mutant that showed a significant change in abundance"}
    ]}
  ]
}
